The test system of data set [1] is SV40 transformed fibroblasts MRC-5. The experiment in a line: Flow cytometry cellular uptake of formulated Dbait-cy3 (Table 1). It is filed as cell-based, human. The method, then:
(§1) The inventors monitored the cellular uptake of the different complexes using a fluorescent cy3-modified Dbait. The initial fluorescence of the cy3-Dbait complex was monitored immediately before transfection. […] Cellular content of human transfected fibroblast cells was measured by flow cytometry analysis.
The Dbait molecules were made by automated solid-phase oligonucleotide synthesis. […] […] (SEQ ID NO: 4) where H is a hexaethyleneglycol linker. Studies on cells in culture were performed using SV40 transformed fibroblasts MRC-5. Cells were grown at 37° C. in monolayer cultures in complete DMEM (Gibco, Cergy-Pontoise, France) with 10% FCS and antibiotics (100 μg/mL streptomycin and 100 μg/mL penicillin) under conditions of 100% humidity, 95% air and 5% CO2. Unless otherwise specified, transfections were performed in 1.2 mL MEM medium without serum in 60 mm diameter plates. Transfection with jetPEI (Polyplus-transfection, Illkirch, France) was performed at an N/P ratio of 6 according to the manufacturer's instructions. Briefly, Dbait was diluted in 150 mM NaCl and gently mixed with an equal volume of PEI in 150 mM NaCl and added to DMEM medium without serum. coDbait was directly added to DMEM medium without serum. Transfection of Dbait molecules was performed with SuperFect reagent in 1.2 mL DMEM medium with serum (in 60 mm diameter plates) for 5 hours and then cells were left to recover for 1 hour if not indicated otherwise. For electroporation, 1.2×10^6 cells were transfected with 2 μg Dbait using the Gene Pulser II (Bio-Rad, Marnes-la-Coquette, France). At the end of the 5h transfection (time zero), medium was replaced by complete medium and cells were grown for the indicated time before being analyzed.
Cells were transfected with different complexes with Dbait-cy3 for 5 h and allowed to grow 5 hours or 24 hours, then rapidly washed with PBS. Cells were directly analyzed by flow cytometry. For immunofluorescence detection by flow cytometry, the cells were fixed in 2% paraformaldehyde for 10 min prior to immunodetection. […] Cells were washed with PBS and resuspended in PBS with 50 μg/mL propidium iodide, 25U/ml RNaseA. Cells were analyzed by a FACSCalibur flow cytometer (BD Biosciences, Franklin Lakes, N.J., USA) and data was analyzed using BD CellQuest Pro (BD Biosciences) and the free WinMDI 2.8 (Scripps Research Institute, La Jolla, Calif., USA) software.

In the next data set the test system is SK28 melanoma xenograft. The conditions noted are these: coDbait 0.6 mg IT alone (group 4) or CQ 1 mg i.p. alone (group 3), with irradiation.
The test system of data set [2] is SK28 xenografted human melanoma. In words: SK28 xenograft survival and tumor growth delay after irradiation with formulated Dbait (Table 2). The conditions noted are these: IT; for Mean TGD: tumor growth delay.
Method: The antitumoral effect of formulated Dbait was tested in combination with radiotherapy on SK28 xenografted human melanoma. Dbait/vector complexes were administered 5 hours before each irradiation using intratumoral injections.
SK28 or U87G xenograft tumors were obtained by injecting 10^6 tumor cells into the flanks of adult female nude mice (Charles River strain; L'Arbresle, France). […] After approximately 12 days, when the subcutaneous tumors measured 150-200 mm^3, the mice were separated into homogeneous groups of at most 12 each to receive different treatments. […] Doses were controlled by thermoluminescence dosimetry. A total dose of 30 Gy was delivered in 6 sessions at intervals of three sessions of 5 Gy per week during two weeks. Dbait molecules were prepared in 100 μL of 10% sucrose as previously described for in vitro studies except that PEI mixtures were performed without NaCl (Polyplus-transfection, Strasbourg, France). The Dbait mixtures were incubated for 15 min at room temperature before injection. CoDbait was diluted in 10% sucrose at the required concentration. Intratumoral injections of the indicated amount of Dbait were performed 5 h before each radiotherapy session. Mock treated animals were injected with 100 μL of 10% glucose according to the protocol of the associated assays. Tumor size was assessed by caliper measurements every three days and size was calculated by the formula (2× length×width^2). Mice were weighed and pictures of tumors were taken every week. For ethical reasons, the animals were sacrificed when their tumors reached 2,000 mm^3. The end point used in survival analysis was death day.
Descriptive analyses of the tumor response were performed for each treatment and each tumor type. Day 1 was the day of the first treatment session. All animals were followed for at least 150 days. Median lifetime was estimated according to the Kaplan-Meier method. Tumor growth delay (TGD) was calculated by subtracting the mean tumor volume quadrupling time of the control group from tumor volume quadrupling times of individual mice in each treated group. The mean TGD was calculated for each treated group using the individual measurements. […] A global LogRank was first performed for each group with the same tumor type. Then treatments with Dbait were compared to the mock-treated controls. All tests were considered significant at the 0.05 significance level.
The next data set concerns MRC5 cell line. In words: Flow cytometry analysis of cellular uptake in the MRC5 cell line (Cy3). In kind it is cell-based, human. On the procedure: Cellular uptake of the Dbait conjugated to cholesterol, in particular CoDbait, in comparison with the Dbait was measured by the inventors by flow cytometry analysis.
Flow cytometry analysis of cellular uptake in the MRC5 cell line performed at 5 hours after the beginning of treatment of various transfection conditions was as described in the table.
(In general: Flow cytometry measures light scatter and fluorescence of single cells or particles in a stream.)

Another data set has as its system zebrafish embryos. The experiment in a line: Injection into 1K-stage zebrafish embryos: distribution and 24 h phenotype toxicity. The conditions noted are these: same concentration of Dbait, by adjuvant.
Data set [3] is described as follows: Fluorescence of formulated cy3-Dbait before transfection. The conditions noted are these: fluorescence at FL2 value of the cy3-Dbait formulation. The method, then:
as §1
Cells were directly analyzed by flow cytometry. For immunofluorescence detection by flow cytometry, the cells were fixed in 2% paraformaldehyde for 10 min prior to immunodetection. […] Cells were washed with PBS and resuspended in PBS with 50 μg/mL propidium iodide, 25U/ml RNaseA. Cells were analyzed by a FACSCalibur flow cytometer (BD Biosciences, Franklin Lakes, N.J., USA) and data was analyzed using BD CellQuest Pro (BD Biosciences) and the free WinMDI 2.8 (Scripps Research Institute, La Jolla, Calif., USA) software.

[4] abbreviates: corrected cellular content FL2/fluorescence, Dbait 1.6 μg/mL.

{Cy3} = cyanine 3 fluorescent label; {Chol} = cholesterol

From the text for SK28 melanoma xenograft: Survival of five groups of nude mice bearing SK28 melanoma xenografts has been studied.
Method for zebrafish embryos: More than 100 embryos were analyzed for each condition.
The observation of phenotypic effects 20 hours after injection allowed assessment of Dbait activity and treatment overall toxicity. […] The 24-hour phenotypes were categorized as described (FIG. 3), allowing quantification of the injected mixture's toxicity.
Zebrafish eggs were obtained from natural spawning of wild type or transgenic (flactin:egfp-ras) fish lines. […] Glass capillaries (Harvard Apparatus GC100-10) were pulled with a KopF vertical pipette puller (KopF 720) to make injection needles. 2 to 5 nl of Dbait solution were injected at the animal pole of embryos in cell cycle 10 and immediately processed for confocal laser scanning microscopy imaging (upright Leica SP2) with 40×/0.8 NA water dipping lens objective. Imaging was performed by simultaneous 480 nm (eGFP) and 561 nm (cy3) excitation. […] One-day-old larvae were observed under the dissecting stop and phenotypes categorized as described in FIG. 3. […] Dbait (coDbait)-cy3 50 μM was injected either alone or in combination with PEI25K (ratio N/P=9), PEI11K (ratio N/P-6), or SuperFect (10 μl/1 μg Dbait).

Regarding `CCN(CC)CCCC(C)Nc1ccnc2cc(Cl)ccc12` (stereo not shown) [chloroquine, 7-chloro-4-(4-diethylamino-1-methylbutyl-amino)quinoline], the “MCC 5 hrs” value in data set [1] (mean cellular content FL2 value, no Dbait, chloroquine only) is 3.12. In the data set with SK28 melanoma xenograft, the radiosensitization entry is “neither coDbait (group 4) nor CQ (group 3) showed significant radiosensitization”. In addition, in data set [2] (CQ without Dbait), the “Mean % TGD” value is reported as 142%, the Median survival time was 68 and the “Mean TGD” value was found to be 8.
On to “Co_siRNA_H2AX-Cy3: siRNA targeting H2AX with a cyanine 3 and a cholesterol at the 5′ and 3′ of the sense strand (sense CAACAAGAAGACGCGAAUCTT; antisense GAUUCGCGUCUUCUUGUUGTT; sense: 5' {Cy3}, 3' {Chol}, sugars by position and backbone not given here; antisense: chemistry not given here)”, for which the “Cy3 fluorescence intensity @5 hrs. Mean” value is reported as 56 in the data set on MRC5 cell line (79 nM), 63 with MRC5 cell line (79 nM + CQ 50 μM), 710 in the data set on MRC5 cell line (986 nM) and 1214 with MRC5 cell line (986 nM + CQ 50 μM). Also, the “Cy3 fluorescence intensity @5 hrs. Median” value worked out at 53 in the data set on MRC5 cell line (79 nM), 60 in the data set on MRC5 cell line (79 nM + CQ 50 μM), 661 in the data set with MRC5 cell line (986 nM) and 1144 in the data set with MRC5 cell line (986 nM + CQ 50 μM).
On to “Dbait: 32-bp hairpin DNA, SEQ ID NO: 4, hexaethyleneglycol linker; mimics double strand breaks (DNA GCTGTGCCCACAACCCAGCAAACAAGCCTAGA; DNA, backbone not given here; hairpin DNA with hexaethyleneglycol linker)”, for which, in data set [1] (setting [4]), the “cor MCC 5 hrs” value worked out at 0.43 and the “cor MCC 24 hrs” value is 0.56. The “fluorescence distribution of treated cells” value in data set [1] (flow cytometry) was “not different from untreated controls”. Besides, in data set [1] (mean cellular content FL2 value, Dbait 1.6 μg/mL), the “MCC 24 hrs” value came out at 3.45. Moreover, in data set [1] (mean cellular content FL2 value, Dbait 1.6 μg/mL, chloroquine +/− as in row), the “MCC 5 hrs” value was found to be 2.65. Also, in data set [2] (6 × 60 μg (3 nmol)), the “Mean % TGD” value stood at 114%, the Median survival time is given as 63 and the “Mean TGD” value was found to be 3. This compound came in with a Cured mice in data set [2] (6 × 60 μg (3 nmol), no recurrence within 300 days) of 0. The compound further came in with a Relative risk in data set [2] (6 × 60 μg (3 nmol), versus mock) of 1.40. Also, the “24-hour phenotype / toxicity in zebrafish embryos” value in the data set on zebrafish embryos is given as “no effect on development”. In data set [3], the “fluorescence × 10e−6/μg/mL” value is on record as 6 10e−6/μg/mL.

Values taken from patent US10765758B2, “Optimized in vivo delivery system with endosomolytic agents for nucleic acid conjugates” (ONXEO, priority 2010, dated 2020).
